Experimental data as given in ChEMBL document CHEMBL1124087, “Chemistry and positive inotropic effect of pelrinone and related derivatives. A novel class of 2-methylpyrimidones as inotropic agents” (J Med Chem, 1988).
Where “and” joins values, the source holds several entries; their conditions need not be identical. Equal values may be shown once.

Tests used:
Canis familiaris [1] = assay: Inotropic effect in dogs with pentobarbitial-induced heart failure, iv administration; assay type: functional; details: Canis lupus familiaris
Canis familiaris [2] = assay: Inotropic effect in the dogs with pentobarbtial-induced heart failure, id administration; assay type: functional; details: Canis lupus familiaris
Canis familiaris [3] = assay: (§1) Reduced arterial blood pressure after Id administration in dogs with pentobarbital-induced heart failure; assay type: functional; details: Canis lupus familiaris
Felis catus [4] = species on record: Felis catus; assay: Chronotropic effects were assayed in vitro in the isolated right artium of the cat.; assay type: functional
Felis catus [5] = species on record: Felis catus; assay: The inotropic activity was assayed in vitro in cat papillary muscle; assay type: functional, Muscle tissue
Felis catus [6] = species on record: Felis catus; assay: Ratio of Chronotropic (C) EC50 to inotropic (I) EC50
Canis familiaris [7] = assay: as §1; assay type: functional; details: Canis lupus familiaris; remark: listed apart in the source
Canis familiaris [8] = species on record: Canis familiaris; assay: (§2) ED20/ED50 ratio (BP/ inotropic) of the compound; assay type: functional, Canis lupus familiaris
Phosphodiesterase 3B = Phosphodiesterase 3B (Bos taurus, UniProt E1BN64); assay: (§3) Inhibition of bovine cardiac phosphodiesterase fraction III
Canis familiaris [9] = assay: Inotropic effect in anesthetized dogs; assay type: functional; details: Canis lupus familiaris
[10] = (§4) Inhibition of crude bovine cardiac phosphodiesterase; assay type: functional, Bos taurus
Canis familiaris [11] = species on record: Canis familiaris; assay: (§5) Ratio of Chronotropic (C) EC50 to inotropic (I) EC50; assay type: functional, Canis lupus familiaris
Canis familiaris [12] = assay: as §1; assay type: functional; details: Canis lupus familiaris; remark: listed apart in the source
[13] = as §4; parameters: species or system Bos taurus
[14] = as §3; parameters: species or system Bos taurus
Felis catus [15] = species on record: Felis catus; assay: In vitro inotropic effect in cat papillary muscle; assay type: functional
Felis catus [16] = species on record: Felis catus; assay: In vitro inotropic effect in cat papillary muscle (Inactive); assay type: functional, Muscle tissue
Felis catus [17] = species on record: Felis catus; assay: In vitro chronotropic effect in right artium of cat (Inactive); assay type: functional; note: test concentration or dose not given here
Canis familiaris [18] = species on record: Canis familiaris; assay: as §2; assay type: functional, Canis lupus familiaris; remark: listed apart in the source
Felis catus [19] = species on record: Felis catus; assay: as §5; assay type: functional
Canis familiaris [20] = assay: Inotropic effect in dogs with pentobarbital-induced heart failure, iv administration; assay type: functional; details: Canis lupus familiaris
Canis familiaris [21] = assay: as §1; assay type: functional; details: Canis lupus familiaris; remark: listed apart in the source
Canis familiaris [22] = assay: Inotropic effect in dogs with pentobarbtial-induced heart failure, iv administration; assay type: functional; details: Canis lupus familiaris
[23] = Felis catus, Muscle tissue, read-out: EC50

Sequence of Phosphodiesterase 3B (E1BN64 whole entry): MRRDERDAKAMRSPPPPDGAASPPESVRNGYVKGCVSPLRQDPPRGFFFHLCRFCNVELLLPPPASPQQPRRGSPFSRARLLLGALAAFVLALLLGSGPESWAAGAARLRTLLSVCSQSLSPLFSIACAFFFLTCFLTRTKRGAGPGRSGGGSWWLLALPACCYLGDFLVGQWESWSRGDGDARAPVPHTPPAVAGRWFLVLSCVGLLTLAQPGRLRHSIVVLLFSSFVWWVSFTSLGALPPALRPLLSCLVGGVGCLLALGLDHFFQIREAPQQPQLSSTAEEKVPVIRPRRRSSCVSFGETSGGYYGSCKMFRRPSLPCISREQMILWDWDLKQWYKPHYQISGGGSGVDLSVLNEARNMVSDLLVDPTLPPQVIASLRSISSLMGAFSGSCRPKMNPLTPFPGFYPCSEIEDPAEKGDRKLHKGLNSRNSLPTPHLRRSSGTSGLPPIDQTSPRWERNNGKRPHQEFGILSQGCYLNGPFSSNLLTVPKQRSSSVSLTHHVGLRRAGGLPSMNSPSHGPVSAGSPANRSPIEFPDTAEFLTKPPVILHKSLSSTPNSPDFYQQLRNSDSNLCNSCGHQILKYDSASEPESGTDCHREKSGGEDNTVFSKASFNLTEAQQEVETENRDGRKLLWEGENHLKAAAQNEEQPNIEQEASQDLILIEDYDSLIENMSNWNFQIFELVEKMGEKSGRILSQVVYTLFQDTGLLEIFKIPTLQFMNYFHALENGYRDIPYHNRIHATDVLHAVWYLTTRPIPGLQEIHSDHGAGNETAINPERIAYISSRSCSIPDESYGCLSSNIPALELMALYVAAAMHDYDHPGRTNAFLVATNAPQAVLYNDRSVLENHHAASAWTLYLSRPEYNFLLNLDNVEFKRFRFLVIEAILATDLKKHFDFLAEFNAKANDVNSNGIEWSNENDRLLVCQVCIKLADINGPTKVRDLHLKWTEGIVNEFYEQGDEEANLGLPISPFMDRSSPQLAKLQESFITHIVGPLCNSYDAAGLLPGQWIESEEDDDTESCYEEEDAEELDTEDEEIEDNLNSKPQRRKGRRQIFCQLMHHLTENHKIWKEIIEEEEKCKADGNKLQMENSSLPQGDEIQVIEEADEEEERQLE

Structure (SMILES)	EC50 (Felis catus [4])	EC50 (Felis catus [5]; [23])	Ratio (Felis catus [6])	EC50 (Felis catus [16])	EC50 (Felis catus [17])	also measured
Cc1nc(O)c(C#N)c(NCCc2ccccc2)n1	> 1000 uM l-1	20 µM	>50			ED50 (Canis familiaris [1]): 0.07 mg/kg; ED50 (Canis familiaris [2]): 0.22 mg/kg; ED20 (Canis familiaris [3]): 0.027 mg/kg; ED20 (Canis familiaris [7]): 0.3 mg/kg
CCNc1nc(C)nc(O)c1[N+](=O)[O-]	230 uM l-1	25 µM	9			
Cc1nc(O)c([N+](=O)[O-])c(NCc2cccnc2)n1	> 1000 uM l-1	5.3 µM	>189			
CCNc1nc(C)nc(O)c1C#N	300 uM l-1	2.6 µM	115			ED50 (Canis familiaris [1]): 0.027 mg/kg; ED50 (Canis familiaris [2]): 0.06 mg/kg; ED20 (Canis familiaris [3]): 0.37 mg/kg; Ratio (Canis familiaris [8]): 1.4 and 1.2; ED20 (Canis familiaris [7]): 0.07 mg/kg
Cc1nc(O)c(C#N)c(NCc2ccccn2)n1	180 uM l-1	43 µM	4			
Cc1nc(O)c(C#N)c(NCCc2ccccn2)n1		37 µM	2			EC50 (Felis catus [4]; Felis catus, read-out: EC50): 71 µM
O=C1CCC(c2ccc(-n3ccnc3)cc2)=NN1 [IMAZODAN]		7 µM				IC50 (Phosphodiesterase 3B): 94 µM; ED50 (Canis familiaris [9]): 0.08 mg/kg; IC50 [10]: 145 µM
Cc1nc(=O)c(C#N)c(NCc2cccnc2)[nH]1 [PELRINONE]	212 uM l-1	5.9 µM				ED50 (Canis familiaris [1]): 0.033 mg/kg; ED50 (Canis familiaris [2]): 0.2 mg/kg; ED50 (Canis familiaris [9]): 0.03 mg/kg; ED20 (Canis familiaris [3]): 0.12 mg/kg; Ratio (Canis familiaris [11]): 36; ED20 (Canis familiaris [12]): > 3 mg/kg; IC50 [13]: 76 µM; IC50 [14]: 36 µM; EC50 (Felis catus [15]): 5 µM
CCc1nc(O)c(C#N)c(NCc2cccnc2)n1		5.5 µM	16			EC50 (Felis catus [4]; Felis catus, read-out: EC50): 86 µM
N#Cc1c(O)nc(O)nc1NCc1cccnc1				Not Active	Not Active	
Cc1nc(O)c(Br)c(NCc2cccnc2)n1	380 uM l-1	3.9 µM				Ratio (Canis familiaris [18]): 2.3 and 4.5; ED50 (Canis familiaris [2]): 0.022 mg/kg; ED50 (Canis familiaris [9]): 0.012 mg/kg; ED20 (Canis familiaris [3]): 0.041 mg/kg; Ratio (Felis catus [19]): 97; ED50 (Canis familiaris [20]): 0.018 mg/kg; IC50 [13]: 35 µM; ED20 (Canis familiaris [7]): 0.1 mg/kg; IC50 [14]: 15 µM; EC50 (Felis catus [15]): 2.5 µM
N#Cc1c(O)nc(Cc2ccccc2)nc1NCc1cccnc1	~ 1000 uM l-1	72 µM	14			
Cc1nc(O)c(C#N)c(NCc2ccncc2)n1	250 uM l-1	4.4 µM	57			
Cc1nc(Cl)c(C#N)c(NCc2cccnc2)n1				Not Active	Not Active	
COc1nc(C)nc(NCc2cccnc2)c1C#N				Not Active	Not Active	
Cc1nc(O)c(C#N)c(NCc2ccco2)n1		10 µM	8.8			EC50 (Felis catus [4]; Felis catus, read-out: EC50): 88 µM
CCNc1nc(C)nc(O)c1Br	420 uM l-1	4.1 µM				Ratio (Canis familiaris [18]): 1.6; ED50 (Canis familiaris [2]): 0.03 mg/kg; ED50 (Canis familiaris [9]): 0.01 mg/kg; ED20 (Canis familiaris [3]): < 0.003 mg/kg; Ratio (Felis catus [19]): 102; ED20 (Canis familiaris [21]): 0.05 mg/kg; Ratio (Canis familiaris [8]): <0.3; ED50 (Canis familiaris [20]): 0.01 mg/kg; EC50 (Felis catus [5]; read-out: EC50): 2.8 µM; IC50 [14]: 38 µM

Structure (SMILES)	EC50 (Felis catus [4])	EC50 (Felis catus [5]; [23])	Ratio (Felis catus [6])	EC50 (Felis catus [16])	EC50 (Felis catus [17])	also measured
Cc1nc(O)c(C#N)c(NCCc2cccnc2)n1	300 uM l-1		1.3			EC50 (Felis catus [5]): 230 uM l-1
Cc1nc(O)c(Cl)c(NCCc2ccccc2)n1	> 1000 uM l-1	1.2 µM	>833			
CC(=O)c1c(O)nc(C)nc1NCc1cccnc1				Not Active	Not Active	
Cc1nc(O)c(Br)c(NCCc2ccccc2)n1	> 1000 uM l-1	6.1 µM	>164			ED50 (Canis familiaris [22]): 0.029 mg/kg; ED50 (Canis familiaris [2]): > 1 mg/kg; ED20 (Canis familiaris [3]): < 0.01 mg/kg; ED20 (Canis familiaris [7]): > 1 mg/kg
CNc1nc(C)nc(NCc2cccnc2)c1C#N				Not Active	Not Active	
Cc1nc(S)c(C#N)c(NCc2cccnc2)n1		14 µM	6			EC50 (Felis catus [4]; Felis catus, read-out: EC50): 80 µM
CC(C)(C)c1nc(O)c(C#N)c(NCc2cccnc2)n1	110 uM l-1	55 µM	2			
Cc1[nH]c(=O)c(C#N)cc1-c1ccncc1 [MILRINONE]	~ 300 uM l-1	7.7 µM				Ratio (Canis familiaris [18]): 2.5; ED50 (Canis familiaris [2]): 0.04 mg/kg; ED50 (Canis familiaris [9]): 0.02 mg/kg; ED20 (Canis familiaris [3]): 0.048 mg/kg; Ratio (Felis catus [19]): ~39; Ratio (Canis familiaris [8]): 3; ED50 (Canis familiaris [20]): 0.016 mg/kg; IC50 [13]: 192 µM; ED20 (Canis familiaris [7]): 0.1 mg/kg; IC50 [14]: 28 µM; EC50 (Felis catus [15]): 6.5 µM
CCNc1nc(C)nc(O)c1C(C)=O				Not Active	Not Active	
CCCNc1nc(C)nc(O)c1C#N		1.9 µM	9			EC50 (Felis catus [4]; Felis catus, read-out: EC50): 17 µM
CSc1ccc(C(=O)c2[nH]c(=O)[nH]c2C)cc1 [ENOXIMONE]	200 uM l-1	90 µM	2.2			
Cc1nc(O)c(C(N)=O)c(NCc2cccnc2)n1				Not Active	Not Active	
N#Cc1c(O)ncnc1NCc1cccnc1				Not Active	Not Active	
N#Cc1c(O)nc(-c2ccccc2)nc1NCc1cccnc1				Not Active	Not Active	
Cc1nc(O)c(C#N)c(NCCc2ccncc2)n1	396 uM l-1	6.5 µM	61			
CSc1nc(C)nc(NCc2cccnc2)c1C#N				Not Active	Not Active	
